Earlier results on one compound are cited in patent US20210275558A1, “METHODS FOR TREATING, PHARMACEUTICAL COMPOSITIONS AND USES THEREOF” (Boehringer Ingelheim International GmbH, priority 2018, published 2021).

The conditions of series [1]: in vivo.
For series [2] the following is noted: crystalline form.
The test system of series [3] is patients with type 2 diabetes mellitus and high cardiovascular risk.
Setting [4] is: secondary outcomes analyses, patients with type 2 diabetes and established cardiovascular disease.

`OC[C@H]1O[C@@H](c2ccc(Cl)c(Cc3ccc(O[C@H]4CCOC4)cc3)c2)[C@H](O)[C@@H](O)[C@@H]1O` [empagliflozin, 1-chloro-4-(β-D-glucopyranos-1-yl)-2-[4-((S)-tetrahydrofuran-3-yloxy)-benzyl]benzene]: in series [1], the “diuretic, arterial stiffness and vascular effects” value was “diuretic effect, reduced arterial stiffness and direct vascular effects”. In addition, in series [2], the solubility result was “good solubility properties” and the stability entry is “physico-chemically stable”. Besides, the reflex-mediated sympathetic activation result in series [3] (in contrast to increases observed with diuretics) was “not being associated with clinically relevant reflex-mediated sympathetic activation”. The “blood pressure and heart rate” value in series [3] (in vivo) is “blood pressure reductions without clinically relevant changes of the heart rate”. In addition, the “risk of cardiovascular death, hospitalization for heart failure and overall mortality” value in series [3] (patients with type 2 diabetes mellitus and high cardiovascular risk) is “reduced the risk of cardiovascular death, hospitalization for heart failure and overall mortality”. In addition, in series [3] (setting [4]), the “progression of kidney disease” value is “slowed progression of kidney disease” and the “risk for clinically relevant kidney events (inclusive end-stage kidney disease)” value is recorded as “reduced the risk for clinically relevant kidney events”.
